Patent US6469008B2, “(R)-hydroxynefazodone antipsychotic therapy” (Sepracor Inc., priority 1999, dated 2002)

Experiments:
5-HT1B = biological target: T1, 5-HT1B (Homo sapiens, UniProt P28222); assay: 5-HT1B receptor binding; details: read-out: Serotonin Receptor Binding 5-HT1B (IC50)
T1 construct: host or cells: membrane preparations
Protocol: (§1) Dopamine and serotonin receptor binding assays were performed in a standard manner with the incubation of membrane preparations in an assay buffer in the presence of a known radioactively labeled specific ligand for the receptor subtypes. Nonspecific binding was determined by assessing binding in the presence of excess ligand. Specific binding was measured as the total labeled ligand bound after the nonspecific binding was subtracted. The effect of the tested agents was measured by determining the competition for the receptor binding across a concentration range. Subsequently, an IC50 was determined for the agents tested. More specific details are provided below for several of the assays performed.

Human D4.4 receptor = biological target: T2, Human D4.4 receptor (Homo sapiens, UniProt P21917); assay: Dopamine D4 receptor binding (head prints D); details: head prints only D
T2 construct: expressed in transfected cells; host or cells: CHO cells
T2 sequence (P21917 1-419): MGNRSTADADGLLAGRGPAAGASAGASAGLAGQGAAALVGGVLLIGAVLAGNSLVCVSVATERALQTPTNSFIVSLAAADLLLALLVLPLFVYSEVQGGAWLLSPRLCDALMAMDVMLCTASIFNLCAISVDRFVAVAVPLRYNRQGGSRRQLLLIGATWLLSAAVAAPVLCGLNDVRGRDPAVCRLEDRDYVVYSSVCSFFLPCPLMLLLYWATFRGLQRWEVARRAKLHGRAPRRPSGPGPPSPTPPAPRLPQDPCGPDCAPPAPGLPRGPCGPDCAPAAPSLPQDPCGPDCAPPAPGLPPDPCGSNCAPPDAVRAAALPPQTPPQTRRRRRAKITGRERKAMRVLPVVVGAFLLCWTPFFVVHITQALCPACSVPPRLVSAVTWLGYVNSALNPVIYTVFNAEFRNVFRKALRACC
Protocol: as §1
(§2) Aliquots of transfected CHO cell membrane preparations corresponding to 100 μg protein are incubated for 60 min at 22° C. in 250 μl of 50 mM Tris-HCl buffer (pH 7.4) containing 120 mM NaCl, 5 mM KCl, 5 mM MgCl2, 1 mM EDTA, 0.3 nM [^3H]spiperone and increasing concentrations of the competing drugs. Nonspecific binding is determined in the presence of 10 μM (+)butaclamol. After incubation, the samples are filtered rapidly under vacuum through glass fiber filters (GF/B, Packard) and rinsed several times with ice-cold 50 mM Tris-HCl using a cell harvester (Packard). Bound radioactivity is measured with a scintillation counter (Topcount, Packard) using a liquid scintillation cocktail (Microscint 0, Packard). The reference compound for this assay is clozapine.

5-HT1D = biological target: T3, 5-HT1D (Homo sapiens, UniProt P28221); assay: 5-HT1D receptor binding; details: read-out: Serotonin Receptor Binding 5-HT1D (IC50)
T3 construct: host or cells: membrane preparations
T3 sequence (P28221 whole entry, species assumed): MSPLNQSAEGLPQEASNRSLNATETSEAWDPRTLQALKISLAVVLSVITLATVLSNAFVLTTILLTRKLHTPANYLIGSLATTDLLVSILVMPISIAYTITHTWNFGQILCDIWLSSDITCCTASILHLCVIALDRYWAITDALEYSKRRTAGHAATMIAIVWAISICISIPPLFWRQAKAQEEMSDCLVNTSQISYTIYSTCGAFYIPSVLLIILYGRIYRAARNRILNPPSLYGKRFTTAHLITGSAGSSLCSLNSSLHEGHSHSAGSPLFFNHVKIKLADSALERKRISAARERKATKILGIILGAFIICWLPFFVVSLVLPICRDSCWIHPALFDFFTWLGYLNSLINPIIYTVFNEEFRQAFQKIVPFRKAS
Protocol: as §1

Human D2 receptor = biological target: T4, Human D2 receptor (Homo sapiens, UniProt P14416); assay: Dopamine D2 receptor binding; details: [3H]spiperone, transfected A9L cell membranes
T4 construct: expressed in transfected cells; host or cells: A9L cells
T4 sequence (P14416 whole entry): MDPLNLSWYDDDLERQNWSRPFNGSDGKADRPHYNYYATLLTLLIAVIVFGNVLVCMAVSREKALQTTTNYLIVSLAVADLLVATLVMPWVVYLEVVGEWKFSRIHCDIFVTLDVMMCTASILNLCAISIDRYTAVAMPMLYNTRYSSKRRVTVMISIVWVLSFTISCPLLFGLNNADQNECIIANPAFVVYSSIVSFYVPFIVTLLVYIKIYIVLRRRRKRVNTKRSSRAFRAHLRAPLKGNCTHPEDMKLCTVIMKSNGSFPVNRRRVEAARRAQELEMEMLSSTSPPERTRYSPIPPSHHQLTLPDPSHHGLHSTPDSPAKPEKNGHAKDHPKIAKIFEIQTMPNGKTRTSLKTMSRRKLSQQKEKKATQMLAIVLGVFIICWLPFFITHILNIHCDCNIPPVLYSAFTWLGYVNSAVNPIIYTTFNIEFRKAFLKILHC
Protocol: as §1
as §2, with “A9L” for “CHO”, “20-40” for “100”, “(+)butaclamol.” for “clozapine.”

[1] = biological target: T5, norepinephrine uptake by rat hypothalamus synaptosomes (Rattus norvegicus, UniProt Q63380); assay: Norepinephrine uptake functional assay; format: biochemical; details: [3H]-norepinephrine, read-out: Monoamine Neuronal Transport NE uptake (IC50)
T5 construct: tissue Cerep; host or cells: male Wistar rat hypothalamus synaptosomes
T5 sequence (Q63380 1-617): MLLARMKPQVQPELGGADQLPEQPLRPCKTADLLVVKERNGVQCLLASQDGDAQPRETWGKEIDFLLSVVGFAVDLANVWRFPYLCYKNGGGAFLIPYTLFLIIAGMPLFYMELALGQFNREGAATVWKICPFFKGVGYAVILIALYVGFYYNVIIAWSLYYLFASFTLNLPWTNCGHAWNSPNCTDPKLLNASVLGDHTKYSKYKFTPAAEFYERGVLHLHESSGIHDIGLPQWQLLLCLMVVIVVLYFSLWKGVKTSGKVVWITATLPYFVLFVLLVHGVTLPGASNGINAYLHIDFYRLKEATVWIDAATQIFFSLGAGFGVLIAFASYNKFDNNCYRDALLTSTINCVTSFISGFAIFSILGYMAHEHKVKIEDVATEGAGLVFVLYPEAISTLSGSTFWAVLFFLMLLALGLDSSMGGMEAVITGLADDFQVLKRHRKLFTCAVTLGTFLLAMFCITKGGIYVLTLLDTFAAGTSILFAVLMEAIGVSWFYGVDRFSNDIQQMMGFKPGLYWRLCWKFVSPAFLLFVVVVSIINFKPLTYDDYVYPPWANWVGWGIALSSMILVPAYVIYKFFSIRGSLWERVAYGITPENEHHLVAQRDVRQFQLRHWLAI
Protocol: Norepinephrine uptake functional assay
Characterization of norepinephrine uptake is performed using synaptosomes isolated at Cerep in a 0.32 M sucrose buffer from a male Wistar rat hypothalamus. The uptake of radiolabeled norepinephrine by synaptosomes (100 μg of proteins/point) is allowed by incubating them for 20 minutes at 37° C. in presence of test compounds and [3H]-norepinephrine (0.1 μCi/point). The experiment is performed in a deep well.
Synaptosomes and [3H]-norepinephrine are prepared in a Krebs buffer pH 7.4 containing 25 mM NaHCO3, 11 mM glucose and 50 μM ascorbic acid. This incubation buffer is oxygenated during 5 minutes before incubation. Basal control is incubated for 20 minutes at 4° C. in order to avoid any uptake. Following this incubation the uptake is stopped by filtration through an “unifilter 96-wells GFB” Packard plate washed with Krebs buffer containing 25 mM NaHCO3 in order to eliminate the free [3H]-norepinephrine. The radioactivity associated to the synaptosomes retained onto the unifilter corresponding to the uptake is then measured with a microplate scintillation counter Topcount, Packard using a scintillation liquid microscint 0, Packard.
[See Perovics and Müiller, op.cit. (1995).]

5-HT6 = biological target: T6, 5-HT6 (Homo sapiens, UniProt P50406); assay: 5-HT6 receptor binding; details: read-out: Serotonin Receptor Binding 5-HT6 (IC50)
T6 construct: host or cells: membrane preparations
T6 sequence (P50406 whole entry, species assumed): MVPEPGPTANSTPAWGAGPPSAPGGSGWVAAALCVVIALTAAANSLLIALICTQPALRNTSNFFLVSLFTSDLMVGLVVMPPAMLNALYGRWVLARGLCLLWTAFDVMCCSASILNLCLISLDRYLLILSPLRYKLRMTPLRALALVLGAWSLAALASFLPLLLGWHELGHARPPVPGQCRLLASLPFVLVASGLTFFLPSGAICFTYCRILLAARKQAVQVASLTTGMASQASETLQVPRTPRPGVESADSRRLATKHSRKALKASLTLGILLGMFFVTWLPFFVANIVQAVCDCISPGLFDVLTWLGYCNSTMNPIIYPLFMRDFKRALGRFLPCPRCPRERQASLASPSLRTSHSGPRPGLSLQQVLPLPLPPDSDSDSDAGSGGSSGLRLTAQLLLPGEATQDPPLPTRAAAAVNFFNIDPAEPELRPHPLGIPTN
Protocol: as §1

D1 = biological target: T7, D1 (Homo sapiens, UniProt P21728); assay: Dopamine D1 receptor binding
T7 construct: host or cells: membrane preparations
T7 sequence (P21728 whole entry): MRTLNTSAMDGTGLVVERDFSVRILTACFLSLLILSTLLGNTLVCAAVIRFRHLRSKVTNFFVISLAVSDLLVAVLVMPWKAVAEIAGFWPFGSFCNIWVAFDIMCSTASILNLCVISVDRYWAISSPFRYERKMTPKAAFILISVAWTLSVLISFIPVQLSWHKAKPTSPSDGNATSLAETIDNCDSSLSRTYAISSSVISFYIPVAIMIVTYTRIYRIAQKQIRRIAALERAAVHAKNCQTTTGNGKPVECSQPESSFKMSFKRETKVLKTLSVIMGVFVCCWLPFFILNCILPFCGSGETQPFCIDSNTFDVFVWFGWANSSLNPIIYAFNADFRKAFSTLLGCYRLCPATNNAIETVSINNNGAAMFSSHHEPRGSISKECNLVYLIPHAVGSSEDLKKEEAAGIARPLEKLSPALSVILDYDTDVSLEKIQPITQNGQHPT
Protocol: as §1

[2] = biological target: T8, serotonin uptake by rat cortex synaptosomes (Rattus norvegicus, UniProt P31652); assay: Serotonin uptake functional assay; format: biochemical; details: [3H]5-hydroxytryptamin, read-out: Monoamine Neuronal Transport 5-HT Uptake (IC50)
T8 construct: from tissue; host or cells: male Wistar rat cortex synaptosomes
T8 sequence (P31652 whole entry): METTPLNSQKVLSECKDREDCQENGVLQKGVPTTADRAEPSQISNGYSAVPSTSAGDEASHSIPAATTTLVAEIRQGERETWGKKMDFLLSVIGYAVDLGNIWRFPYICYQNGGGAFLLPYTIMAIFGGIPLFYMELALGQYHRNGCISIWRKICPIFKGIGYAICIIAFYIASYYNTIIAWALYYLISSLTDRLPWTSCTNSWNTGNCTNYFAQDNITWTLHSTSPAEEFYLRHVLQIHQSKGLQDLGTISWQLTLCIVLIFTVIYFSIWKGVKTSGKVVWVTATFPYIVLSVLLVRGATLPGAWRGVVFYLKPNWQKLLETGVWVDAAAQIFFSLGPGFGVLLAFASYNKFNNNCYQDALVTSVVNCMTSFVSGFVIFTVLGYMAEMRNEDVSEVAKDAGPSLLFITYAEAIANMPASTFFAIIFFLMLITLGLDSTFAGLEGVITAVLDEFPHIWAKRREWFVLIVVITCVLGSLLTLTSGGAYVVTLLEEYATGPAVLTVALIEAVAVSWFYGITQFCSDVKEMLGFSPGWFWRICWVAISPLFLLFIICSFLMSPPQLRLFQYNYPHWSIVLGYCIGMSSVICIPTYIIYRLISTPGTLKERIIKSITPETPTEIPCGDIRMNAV
Protocol: Serotonin uptake functional assay
Characterization of serotonin uptake is performed using synaptosomes isolated in a 0.32 M sucrose buffer from a male Wistar rat cortex. The uptake of radiolabelled serotonin by synaptosomes (100 μg of proteins/point) is allowed by incubating them for 15 minutes at 37° C. in presence of test compounds and [3H]5-hydroxytryptamin (0.1 μCi/point). The experiment is performed in a deep well.
Synaptosomes and [3H]5-hydroxytryptamin are prepared in a Krebs buffer pH 7.4 containing 25 mM NaHCO3, 11 mM glucose and 50 μM ascorbic acid. This incubation buffer is oxygenated during 5 minutes before incubation. Basal control is incubated for 15 minutes at 4° C. in order to avoid any uptake. Following this incubation the uptake is stopped by filtration through an “unifilter 96-wells GF”Packard plate washed with Krebs buffer containing 25 mM NaHCO3 in order to eliminate the free [3H]5-hydroxytryptamin. The radioactivity associated to the synaptosomes retained onto the unifilter corresponding to the uptake is then measured with a microplate scintillation counter Topcount, Packard using a scintillation liquid microscint 0, Packard.
[See Perovics and Müiller “Pharmacological profile of hypericum extract: effect on serotonin uptake by postsynaptic receptors”, Arzeim Forsch/Drug Res. 45 1145-1148 (1995).]

α1 Receptor = assay: α1 receptor binding; details: read-out: α1 Receptor Binding Alpha1 (IC50)

T1 sequence (P28222 whole entry, species assumed): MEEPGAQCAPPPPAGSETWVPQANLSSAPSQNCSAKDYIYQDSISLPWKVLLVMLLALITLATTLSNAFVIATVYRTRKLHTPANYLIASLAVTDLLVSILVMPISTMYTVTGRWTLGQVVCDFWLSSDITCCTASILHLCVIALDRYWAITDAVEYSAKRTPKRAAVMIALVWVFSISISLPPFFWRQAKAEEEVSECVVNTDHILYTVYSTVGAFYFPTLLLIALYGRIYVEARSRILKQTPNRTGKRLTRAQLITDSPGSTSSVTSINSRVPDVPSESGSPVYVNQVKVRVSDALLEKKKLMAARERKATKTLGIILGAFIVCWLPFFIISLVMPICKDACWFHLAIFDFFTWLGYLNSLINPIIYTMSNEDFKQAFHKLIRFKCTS

SMILES: CC(O)c1nn(CCCN2CCN(c3cccc(Cl)c3)CC2)c(=O)n1CCOc1ccccc1 (racemic) [(RS)-OH, 2-[3-[4-(3-chlorophenyl)1-piperazinyl]propyl]-5-(1-hydroxyethyl)-2,4-dihydro-4-(phenoxyethyl)-3H-1,2,4-triazol-3-one, reference compound]
- IC50 (5-HT1B): 4.55 µM
- IC50 (Human D4.4 receptor): 1310 nM
- IC50 (5-HT1D): 1150 nM
- IC50 (Human D2 receptor): 1420 nM
- IC50 [1]: 1000 nM
- IC50 (5-HT6): 856 nM
- IC50 (D1): 2270 nM
- IC50 [2]: 500 nM
- IC50 (α1 Receptor): 381 nM

SMILES: C[C@@H](O)c1nn(CCCN2CCN(c3cccc(Cl)c3)CC2)c(=O)n1CCOc1ccccc1 [(R)-OH, (R)-hydroxynefazodone]
- IC50 (5-HT1B): 3.61 µM
- IC50 (Human D4.4 receptor): 1910 nM
- IC50 (5-HT1D): 1990 nM
- IC50 (Human D2 receptor): 1690 nM
- IC50 [1]: 1200 nM
- IC50 (5-HT6): 1020 nM
- IC50 (D1): 1690 nM
- IC50 [2]: 640 nM
- IC50 (α1 Receptor): 367 nM

SMILES: C[C@H](O)c1nn(CCCN2CCN(c3cccc(Cl)c3)CC2)c(=O)n1CCOc1ccccc1 [(S)-OH, (S)-2-{3-[4-(3-Chlorophenyl)-1-piperazinyl]propyl}-4-(2-phenoxyethyl)-5-[1-(hydroxy)-ethyl]-2,4-dihydro-[1,2,4]triazol-3-one]
- IC50 (5-HT1B): 2.84 µM
- IC50 (Human D4.4 receptor): 994 nM
- IC50 (5-HT1D): 234 nM
- IC50 (Human D2 receptor): 788 nM
- IC50 [1]: 1500 nM
- IC50 (5-HT6): 489 nM
- IC50 (D1): 2310 nM
- IC50 [2]: 790 nM
- IC50 (α1 Receptor): 419 nM
